Reference: patent US7132454B2, “HEXIM1 as a suppressor of HIV replication and cardiac hypertrophy” (Regents of the University of California, priority 2004, dated 2006)

Tests used:
HSV = conditions: cited from earlier work
[1] = tested on: right ventricular myocytes; experiment: myocardial infarction model, HMBA by osmotic minipump; ventricular myocyte hypertrophy and action potential; format: in vivo, male Wistar rats
Text: In a method adapted from Perrier et al. (2004), myocardial infarction (MI) is induced in 250 to 280 g male Wistar rats by left coronary artery ligation. Only post-MI hearts that show a transmural scar are used. An osmotic minipump (Alzet 2ML4) is implanted subcutaneously at the time of surgery to deliver varying amounts of HMBA or other HPC. Control animals receive carrier solution only. Cellular responses are examined over time using whole-cell, patch-clamp techniques on right ventricular myocytes. Animals are euthanized 1 and 3 weeks after surgery with intraperitoneal injection of sodium pentobarbital. Ventricular myocytes are isolated enzymatically. Cellular hypertrophy is monitored by 2-photon microscopy (Zeiss LSM 510 NLO) to calculate cell volume and the whole-cell patch-clamp technique is used to measure membrane capacitance, an electrical index of membrane surface area. To measure cell volume, the voltage-sensitive dye 1-(3-sulfonatopropyl)-[…][b-[2-(di-n-butylamino)-6-naphthyl]vinyl]pyridium betaine (di-4-ANEPPS)-loaded cells are illuminated at 840 nm with a mode-locked Ti:sapphire laser (Mira 900, Coherent) and recorded in 3D. Images of spherical beads (Molecular Probes) are recorded under the same conditions to calculate the point spread function. Deconvolution is performed with Huygens (Bitplane AG). […] AP and K^+ are measured. […]

[2] = tested on: human vascular smooth muscle cell (VSMC); conditions: cited from earlier work
HIV = conditions: cited from earlier work
cardiac hypertrophy = experiment: HMBA infusion in patients having or susceptible to cardiac hypertrophy; format: in vivo; conditions: 24 g/m^2/d in 10-day courses
Experimental: Genetic testing, and/or ECG and echocardiography are used to diagnose patients susceptible to hypertrophic cardiomyopathy using methods described by Charron et al. (1997 & 2003). For genetic testing, candidate patients are from families involved in genetic studies in whom genetic analyses are performed and the causative mutation identified. Patients are identified as being at risk of inheriting the disease gene, i.e., they have a first-degree relative clinically affected by hypertrophic cardiomyopathy. The major diagnostic criteria for echocardiography are a left ventricular wall thickness >13 mm and, for ECG, abnormal Q waves, left ventricular hypertrophy, and marked ST-T changes. Clinical evaluation is performed, and blood samples are obtained. Using methods adapted from Andreeff et al. (1992), patients diagnosed as having or susceptible to cardiac hypertrophy are given HMBA treatment. A 5% solution of HMBA (NSC-95580) in distilled water is provided in 500-ml infusion bottles (25 g total per bottle). HMBA is administered at a dose of 24 g/m^2/d in 10-day courses, followed by an 18- to 75-day observation period. Plasma levels are determined daily (at 24 hours into the infusion). […] HMBA plasma levels are determined using HPLC.

CC(=O)NCCCCCCNC(C)=O [HMBA, Hexamethylene bisacetamide]
activation of HSV (HSV): activate viruses
action potential ([1]; rats after myocardial infarction, 1 and 3 weeks): normal action potential
cellular hypertrophy ([1]; rats, three weeks after myocardial infarction): no signs of cellular hypertrophy
VSMC proliferation [2]: inhibit human vascular smooth muscle cell (VSMC) proliferation
activation of HIV (HIV): activate viruses
cardiac hypertrophy by morphologic analyses (cardiac hypertrophy; certain patients): reduces cardiac hypertrophy
most prominent toxicity (cardiac hypertrophy; patients): thrombocytopenia, generally reversible on cessation of administration
